Experimental findings from the supplement of paper PMC10307832 are described below.

Experiment in all cases: relative viability (nuclei count vs DMSO), 5 days (fraction); higher = more cells survive
Compound in the assay “GSK-J4 + Foretinib”: CCOC(=O)CCNc1cc(N2CCc3ccccc3CC2)nc(-c2ccccn2)n1 [GSK-J4] + COc1cc2c(Oc3ccc(NC(=O)C4(C(=O)Nc5ccc(F)cc5)CC4)cc3F)ccnc2cc1OCCCN1CCOCC1 [Foretinib] (partner 0.25 µM)
The method in brief: (§1)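 A single step with final 0.05% Triton X-100, 1% formaldehyde and 1 ug/ml Hoechst fixed the cells and stained nuclei 5 days after treatment. Lung cancer cell lines in 1536-well plates had been treated by pin tool the day after seeding with one drug alone or a fixed anchor-drug dose plus five library-drug doses (not always all listed) in √10 steps, and nuclei were counted on 4× images. Relative viability is the ratio of nuclei in treated wells to nuclei in vehicle wells, taken as the median of duplicate plates.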

Compound in the assay “AZ3146 + Palbociclib”: CN1CCC(CC1)OC2=CC(=C(C=C2)NC3=NC=C4C(=N3)N(C(=O)N4C)C5CCCC5)OC [AZ3146] + CC(=O)c1c(C)c2cnc(Nc3ccc(N4CCNCC4)cn3)nc2n(C2CCCC2)c1=O [Palbociclib] (partner 0.5 µM)
The essentials: as §1

Compound in another assay: CCOC(=O)CCNc1cc(N2CCc3ccccc3CC2)nc(-c2ccccn2)n1 [GSK-J4]
The method in brief: (§2)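 After an overnight hold at 37 °C, lung cancer cell lines in 1536-well plates were pinned with five library-drug doses (not always all listed), each √10 from the next, on vehicle-anchored plates. The cells stayed 5 days without fresh medium, then a one-step fix, permeabilisation and Hoechst stain preceded 4× imaging and MetaXpress nuclear counts. A plate passed only with control CV under 25% and at least one doubling. Viability is the median, over plates, of treated-well nuclei relative to vehicle-well nuclei.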

Compound in the next assay: CN1CCC(CC1)OC2=CC(=C(C=C2)NC3=NC=C4C(=N3)N(C(=O)N4C)C5CCCC5)OC [AZ3146]
The method in brief: as §2

Consider UMC-11, for which the relative viability worked out at 0.896 in the assay with GSK-J4 + Foretinib (first compound 0.5 µM); 1.07 in the assay with GSK-J4 + Foretinib (first compound 5 µM); 1.08 with GSK-J4 + Foretinib (first compound 15.81 µM); 0.556 in the assay with GSK-J4 + Foretinib (first compound 50 µM); 0.267 in the assay with AZ3146 + Palbociclib (first compound 0.08 µM); 0.342 with AZ3146 + Palbociclib (first compound 0.253 µM). The relative viability in the assay with AZ3146 + Palbociclib (first compound 0.8 µM) came out at 0.335; in the assay with AZ3146 + Palbociclib (first compound 2.53 µM), 0.303; with AZ3146 + Palbociclib (first compound 8 µM), 0.306; with GSK-J4 (0.5 µM) it was 0.96; with GSK-J4 (1.581 µM), 0.735; with GSK-J4 (5 µM), 0.741. Besides, the relative viability with GSK-J4 (15.81 µM) was found to be 1.01; in the assay with GSK-J4 (50 µM), 0.551; with AZ3146 (0.08 µM), 0.863; with AZ3146 (0.253 µM), 0.985; in the assay with AZ3146 (0.8 µM) it was 0.971; with AZ3146 (2.53 µM), 0.898. Moreover, the relative viability in the assay with AZ3146 (8 µM) came out at 0.624.
